pKd: −log10 of the molar value. Like-named read-outs stand apart in the source and are kept apart here. Positions of bridges follow the written chain, without caps; N, C: chain ends. Residues, ends and D or L forms follow the SMILES beside them.

From paper PMC10763615, “Identification and engineering of potent cyclic peptides with selective or promiscuous binding through biochemical profiling and bioinformatic data analysis” (RSC Chemical Biology, 2023) come the findings set out here.

In assay [1] the target is T1, FGF-R4 ECD (Homo sapiens, UniProt P22455).
T1 construct: DNA constructs for the extracellular domain (ECD) of human FGF-; HPC4 (C); made in house; host or cells: HEK 293-6E
T1 sequence (P22455 22-369 limits assumed): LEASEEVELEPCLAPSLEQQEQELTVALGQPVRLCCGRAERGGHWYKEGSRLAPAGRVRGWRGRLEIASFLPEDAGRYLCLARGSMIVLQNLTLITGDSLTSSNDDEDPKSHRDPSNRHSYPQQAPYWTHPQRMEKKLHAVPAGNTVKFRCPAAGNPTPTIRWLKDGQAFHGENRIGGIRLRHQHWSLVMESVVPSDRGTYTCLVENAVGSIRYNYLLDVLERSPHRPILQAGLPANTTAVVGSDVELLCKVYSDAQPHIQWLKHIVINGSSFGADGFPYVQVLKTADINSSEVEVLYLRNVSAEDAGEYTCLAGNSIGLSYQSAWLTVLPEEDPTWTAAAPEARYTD
Kind of assay: multi-concentration BLI of purified peptides. The settings on record: purified trimer-18 library peptides. The format is binding. As to the method: (§1) KD affinity binding measurements were obtained by biolayer interferometry (BLI) instruments (Fortebio Octet HTX, or Sartorius Octet RH16 using either 8 or 16 channel mode.
(§2) For single concentration binding experiments, 50 μM peptide stocks in folding buffer were diluted 1:50 in mRNA display selection buffer (PBS pH7.4 supplemented with 0.05% Tween-20 and 0.01% BSA) in either a 96 well black plate, or a 384 well tilted bottom microplate (ForteBio). Biotinylated FGF-R protein was loaded onto Streptavidin-functionalised biosensors (ForteBio) and immersed into ~1 μM peptide to obtain association kinetics curves. Dissociation kinetics curves were obtained by subsequent immersion of ligand-associated loaded sensors into a 1:50 dilution of folding buffer in mRNA display selection buffer. Fitted KD data was adjusted for concentration as determined by UPLC-CAD.
(§3) For accurate multi-concentration KD determination, dilution series of each peptide were made, and association and dissociation kinetics curves were obtained as above for each concentration to fit a multi-point KD binding model. Data collection and analysis was performed using the Octet Instrument Control […]
(§4) concentration assay kinetics curves shown in supplementary Figure S 19-24.

In assay [2] the target is T2, FGF-R1C ECD (Homo sapiens, UniProt P11362).
T2 sequence (P11362 22-376 limits assumed): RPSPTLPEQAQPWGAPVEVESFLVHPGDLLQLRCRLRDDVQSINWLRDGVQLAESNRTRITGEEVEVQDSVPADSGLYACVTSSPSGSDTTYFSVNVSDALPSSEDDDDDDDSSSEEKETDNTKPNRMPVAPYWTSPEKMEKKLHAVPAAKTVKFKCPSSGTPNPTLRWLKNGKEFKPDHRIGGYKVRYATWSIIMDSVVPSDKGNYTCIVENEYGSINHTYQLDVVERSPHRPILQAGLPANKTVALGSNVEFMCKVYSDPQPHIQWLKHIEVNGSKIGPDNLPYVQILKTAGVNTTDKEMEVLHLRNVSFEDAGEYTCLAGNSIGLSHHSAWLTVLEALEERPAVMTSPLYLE
Kind of assay: biochemical. As to the method:
as §1, §2, §3, §4

Assay [3] concerns the target T3, FGF-R3C ECD (Homo sapiens, UniProt P22607).
T3 sequence (P22607 23-375 limits assumed): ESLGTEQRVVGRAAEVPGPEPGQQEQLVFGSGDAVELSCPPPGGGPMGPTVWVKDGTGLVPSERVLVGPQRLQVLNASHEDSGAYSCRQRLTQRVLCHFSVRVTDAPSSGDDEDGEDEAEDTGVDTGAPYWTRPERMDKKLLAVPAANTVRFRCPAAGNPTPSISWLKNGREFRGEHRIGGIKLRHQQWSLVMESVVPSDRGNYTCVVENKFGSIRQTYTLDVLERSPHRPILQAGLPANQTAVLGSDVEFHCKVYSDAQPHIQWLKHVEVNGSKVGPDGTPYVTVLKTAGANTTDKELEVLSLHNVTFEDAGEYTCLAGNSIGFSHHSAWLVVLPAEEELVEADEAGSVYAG
The assay can be described thus: biochemical. As to the method:
as §1, §2, §3, §4

The target in assay [4] is T1, FGF-R4 ECD. Kind of assay: single concentration BLI of crude peptides. The format is binding. Particulars: crude T18 selection 1 (1:1:1) peptides, single concentration BLI (Table S4); read-out: KD (4). The gist of the method:
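Biotinylated FGF-R ECD on streptavidin biosensors was dipped into ~1 μM crude peptide in PBS pH7.4 with 0.05% Tween-20 and 0.01% BSA for association, then into buffer for dissociation, and followed by BLI. Fitted KD values were adjusted for peptide concentration measured by UPLC-CAD.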

Assay [5] deals with T2, FGF-R1C ECD. Kind of assay: biochemical. The class given is binding. More on the design: DNA constructs for the extracellular domain (ECD) of human FGF-; HPC4 (C); made in house; host or cells: HEK 293-6E. The gist of the method: (§5)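 BLI, streptavidin sensors loaded with biotinylated receptor ECD. Single-point: ~1 μM crude peptide, PBS pH7.4/0.05% Tween-20/0.01% BSA; association then dissociation in buffer. KD corrected for UPLC-CAD-determined concentration.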

The target of assay [6] is T3, FGF-R3C ECD. Kind of assay: biochemical. The class given is binding. More on the design: DNA constructs for the extracellular domain (ECD) of human FGF-; HPC4 (C); made in house; host or cells: HEK 293-6E. The method in brief:
as §5

In the case of `CSCC[C@H](NC(C)=O)C(=O)N[C@H]1CSSC[C@@H](C(=O)NCC(=O)N[C@@H](CO)C(=O)NCC(=O)N[C@@H](CO)C(=O)N[C@@H](CC(=O)O)C(=O)N[C@@H](Cc2ccc(O)cc2)C(=O)N[C@@H](CCCCN)C(=O)N[C@@H](CC(=O)O)C(=O)N[C@@H](CC(=O)O)C(=O)N[C@@H](CC(=O)O)C(=O)N[C@@H](CC(=O)O)C(=O)N[C@@H](CCCCN)C(N)=O)NC(=O)[C@H](C)NC(=O)[C@H](CCCCN)NC(=O)[C@H](CCCNC(=N)N)NC(=O)[C@H](Cc2c[nH]c3ccccc23)NC(=O)[C@H](CC(C)C)NC(=O)[C@H](CC(C)C)NC(=O)[C@H](Cc2ccc(O)cc2)NC(=O)[C@H](Cc2ccc(O)cc2)NC(=O)[C@H](Cc2ccccc2)NC(=O)[C@H](CC(C)C)NC(=O)[C@H](CC(=O)O)NC(=O)[C@H](CC(N)=O)NC1=O` [4.18], the pKd on FGF-R4 ECD [1] is 6.22; at FGF-R1C ECD [2], < 6.00; on FGF-R3C ECD [3], < 6.00.
For `CSCC[C@H](NC(C)=O)C(=O)N[C@H]1CSSC[C@@H](C(=O)NCC(=O)N[C@@H](CO)C(=O)NCC(=O)N[C@@H](CO)C(=O)N[C@@H](CC(=O)O)C(=O)N[C@@H](Cc2ccc(O)cc2)C(=O)N[C@@H](CCCCN)C(=O)N[C@@H](CC(=O)O)C(=O)N[C@@H](CC(=O)O)C(=O)N[C@@H](CC(=O)O)C(=O)N[C@@H](CC(=O)O)C(=O)N[C@@H](CCCCN)C(N)=O)NC(=O)[C@H](CCC(N)=O)NC(=O)[C@H](CCCCN)NC(=O)[C@H](Cc2ccccc2)NC(=O)[C@H](CC(C)C)NC(=O)[C@H](CC(C)C)NC(=O)[C@H](Cc2ccc(O)cc2)NC(=O)[C@H](Cc2ccc(O)cc2)NC(=O)[C@H](Cc2ccc(O)cc2)NC(=O)[C@H](CC(C)C)NC(=O)[C@H](Cc2c[nH]cn2)NC(=O)[C@H](CCCCN)NC(=O)[C@H](CC(N)=O)NC1=O` [4.25], the pKd is 8.52 at FGF-R4 ECD [1], < 6.00 on FGF-R1C ECD [2] and < 6.00 at FGF-R3C ECD [3].
Regarding `CSCC[C@H](NC(C)=O)C(=O)N[C@H]1CSSC[C@@H](C(=O)NCC(=O)N[C@@H](CO)C(=O)NCC(=O)N[C@@H](CO)C(=O)N[C@@H](CC(=O)O)C(=O)N[C@@H](Cc2ccc(O)cc2)C(=O)N[C@@H](CCCCN)C(=O)N[C@@H](CC(=O)O)C(=O)N[C@@H](CC(=O)O)C(=O)N[C@@H](CC(=O)O)C(=O)N[C@@H](CC(=O)O)C(=O)N[C@@H](CCCCN)C(N)=O)NC(=O)[C@@H]2CCCN2C(=O)[C@H](CCCNC(=N)N)NC(=O)[C@H](Cc2c[nH]c3ccccc23)NC(=O)[C@@H]2CCCN2C(=O)[C@H](CCC(=O)O)NC(=O)[C@H](Cc2c[nH]cn2)NC(=O)[C@H](Cc2c[nH]c3ccccc23)NC(=O)[C@H](Cc2ccc(O)cc2)NC(=O)[C@H](C)NC(=O)[C@H](CCCCN)NC(=O)[C@H]([C@@H](C)O)NC(=O)[C@H](Cc2ccc(O)cc2)NC1=O` [4.24], the negative logarithm of the Kd (pKd) on FGF-R4 ECD [1], on FGF-R1C ECD [2] and on FGF-R3C ECD [3] was < 6.00 in each case.
On to `CC[C@H](C)[C@@H]1NC(=O)[C@H](Cc2c[nH]c3ccccc23)NC(=O)[C@H](Cc2ccc(O)cc2)NC(=O)[C@H](CCCCN)NC(=O)[C@H](C(C)C)NC(=O)[C@H](Cc2c[nH]c3ccccc23)NC(=O)[C@H](Cc2ccc(O)cc2)NC(=O)[C@H](CCCCN)NC(=O)[C@H](CC(=O)O)NC(=O)[C@@H](NC(=O)[C@H](CCSC)NC(C)=O)CSSC[C@@H](C(=O)NCC(=O)N[C@@H](CO)C(=O)NCC(=O)N[C@@H](CO)C(=O)N[C@@H](CC(=O)O)C(=O)N[C@@H](Cc2ccc(O)cc2)C(=O)N[C@@H](CCCCN)C(=O)N[C@@H](CC(=O)O)C(=O)N[C@@H](CC(=O)O)C(=O)N[C@@H](CC(=O)O)C(=O)N[C@@H](CC(=O)O)C(=O)N[C@@H](CCCCN)C(N)=O)NC(=O)[C@H](CCCNC(=N)N)NC(=O)[C@H](Cc2c[nH]c3ccccc23)NC(=O)[C@H](C)NC1=O` [4.21], for which the pKd at FGF-R4 ECD [1] was 6.39; on FGF-R1C ECD [2], 6.11; on FGF-R3C ECD [3] it was 6.29.
In the same order, the values of `CSCC[C@H](NC(C)=O)C(=O)N[C@H]1CSSC[C@@H](C(=O)NCC(=O)N[C@@H](CO)C(=O)NCC(=O)N[C@@H](CO)C(=O)N[C@@H](CC(=O)O)C(=O)N[C@@H](Cc2ccc(O)cc2)C(=O)N[C@@H](CCCCN)C(=O)N[C@@H](CC(=O)O)C(=O)N[C@@H](CC(=O)O)C(=O)N[C@@H](CC(=O)O)C(=O)N[C@@H](CC(=O)O)C(=O)N[C@@H](CCCCN)C(N)=O)NC(=O)[C@H](Cc2c[nH]c3ccccc23)NC(=O)[C@H](CC(C)C)NC(=O)[C@H](CC(C)C)NC(=O)[C@H](Cc2ccc(O)cc2)NC(=O)[C@H](Cc2ccc(O)cc2)NC(=O)[C@H](Cc2ccccc2)NC(=O)[C@H](CC(C)C)NC(=O)[C@H](C(C)C)NC(=O)[C@H](CCCCN)NC(=O)[C@H](CCCCN)NC(=O)[C@H](CC(N)=O)NC(=O)[C@H](CCC(=O)O)NC1=O` [4.20] are 6.49, < 6.00 and < 6.00.
Taken in the same sequence, the figures for `CC[C@H](C)[C@@H]1NC(=O)[C@H](Cc2ccccc2)NC(=O)[C@H](CCCCN)NC(=O)[C@H](CC(N)=O)NC(=O)[C@H](Cc2ccc(O)cc2)NC(=O)[C@@H](NC(=O)[C@H](CCSC)NC(C)=O)CSSC[C@@H](C(=O)NCC(=O)N[C@@H](CO)C(=O)NCC(=O)N[C@@H](CO)C(=O)N[C@@H](CC(=O)O)C(=O)N[C@@H](Cc2ccc(O)cc2)C(=O)N[C@@H](CCCCN)C(=O)N[C@@H](CC(=O)O)C(=O)N[C@@H](CC(=O)O)C(=O)N[C@@H](CC(=O)O)C(=O)N[C@@H](CC(=O)O)C(=O)N[C@@H](CCCCN)C(N)=O)NC(=O)[C@H](Cc2ccc(O)cc2)NC(=O)[C@H](CC(C)C)NC(=O)[C@H](C(C)C)NC(=O)[C@H](CCCCN)NC(=O)[C@H](Cc2ccc(O)cc2)NC(=O)[C@H](CC(C)C)NC(=O)[C@H]([C@@H](C)O)NC1=O` [4.19] were 6.10, < 6.00 and < 6.00.
On to `CSCC[C@H](NC(C)=O)C(=O)N[C@H]1CSSC[C@@H](C(=O)NCC(=O)N[C@@H](CO)C(=O)NCC(=O)N[C@@H](CO)C(=O)N[C@@H](CC(=O)O)C(=O)N[C@@H](Cc2ccc(O)cc2)C(=O)N[C@@H](CCCCN)C(=O)N[C@@H](CC(=O)O)C(=O)N[C@@H](CC(=O)O)C(=O)N[C@@H](CC(=O)O)C(=O)N[C@@H](CC(=O)O)C(=O)N[C@@H](CCCCN)C(N)=O)NC(=O)[C@H](Cc2ccc(O)cc2)NC(=O)[C@H](Cc2ccccc2)NC(=O)[C@H](Cc2c[nH]c3ccccc23)NC(=O)[C@H](CCCCN)NC(=O)[C@H](Cc2ccc(O)cc2)NC(=O)[C@H](Cc2c[nH]c3ccccc23)NC(=O)[C@H](CCC(N)=O)NC(=O)[C@H](CC(C)C)NC(=O)[C@H]([C@@H](C)O)NC(=O)[C@H](C)NC(=O)[C@H](Cc2ccc(O)cc2)NC(=O)[C@H](CCCCN)NC1=O` (Ac-MCKYATLQWYKWFYCGSGSDYKDDDDK-NH2; disulfide 2-15), for which the pKd on FGF-R4 ECD [4] was 7.20; at FGF-R1C ECD [5], 6.94; at FGF-R3C ECD [6], 5.13.

The term pKd denotes −log10 of the Kd, conventionally taken in molar units.
